ChEMBL document CHEMBL5375988, “AcGlcAs: A Novel P53-Targeting Arsenical with Potent Cellular Uptake and Cancer Cell Selectivity” (J Med Chem, 2023)
The source made the active and inactive calls. The calls are words filed in the database; no cut-off is given here.

How the values were obtained:
NB-4 = assay: Antiproliferative activity against human NB4 cells expressing PML/RARalpha assessed as cell growth inhibition measured after 48 hrs by CCK-8 assay; assay type: functional, cell-based
[1] = target: T1, PML-RARalpha (Homo sapiens) (UniProt P10276+P29590); assay: Induction of Flag-tagged PML/RARalpha (unknown origin) degradation overexpressed in HEK293T cells at 0.3 to 1.5 uM incubated for 16 hrs by Western blot analysis; assay type: cell-based; settings: dose 0.3-1.5 µM
[2] = target: T1, PML-RARalpha (Homo sapiens); assay: Induction of Flag-tagged PML/RARalpha (unknown origin) degradation overexpressed in HEK293T cells at 13 to 65 uM incubated for 16 hrs by Western blot analysis; assay type: cell-based; settings: dose 13-65 µM
[3] = system: Cellular tumor antigen p53 (Homo sapiens), P04637 [V272M]; assay: Thermostabilization of recombinant p53 V272M mutant (unknown origin) […] assessed as increase in melting temperature at 1:15 ratio in HEPES at pH 7.5 by DSF analysis
[4] = target: T1, PML-RARalpha (Homo sapiens); assay: Induction of Flag-tagged PML/RARalpha (unknown origin) degradation overexpressed in HEK293T cells at 4.2 to 21 uM incubated for 16 hrs by Western blot analysis; assay type: cell-based; settings: dose 4.2-21 µM

T1 sequence (P10276 whole entry, looked up): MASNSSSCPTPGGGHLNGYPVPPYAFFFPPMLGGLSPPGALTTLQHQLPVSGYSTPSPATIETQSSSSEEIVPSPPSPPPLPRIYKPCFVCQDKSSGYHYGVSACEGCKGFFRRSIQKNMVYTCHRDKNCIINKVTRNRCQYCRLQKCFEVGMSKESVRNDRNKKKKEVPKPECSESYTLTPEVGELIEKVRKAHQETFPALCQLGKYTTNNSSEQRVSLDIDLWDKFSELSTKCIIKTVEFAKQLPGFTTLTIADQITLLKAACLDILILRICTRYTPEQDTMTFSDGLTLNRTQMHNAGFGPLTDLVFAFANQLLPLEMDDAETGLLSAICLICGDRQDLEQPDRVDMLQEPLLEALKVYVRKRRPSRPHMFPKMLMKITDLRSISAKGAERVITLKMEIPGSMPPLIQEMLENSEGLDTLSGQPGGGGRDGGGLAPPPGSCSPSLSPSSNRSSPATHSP
T1 sequence (P29590 whole entry, looked up): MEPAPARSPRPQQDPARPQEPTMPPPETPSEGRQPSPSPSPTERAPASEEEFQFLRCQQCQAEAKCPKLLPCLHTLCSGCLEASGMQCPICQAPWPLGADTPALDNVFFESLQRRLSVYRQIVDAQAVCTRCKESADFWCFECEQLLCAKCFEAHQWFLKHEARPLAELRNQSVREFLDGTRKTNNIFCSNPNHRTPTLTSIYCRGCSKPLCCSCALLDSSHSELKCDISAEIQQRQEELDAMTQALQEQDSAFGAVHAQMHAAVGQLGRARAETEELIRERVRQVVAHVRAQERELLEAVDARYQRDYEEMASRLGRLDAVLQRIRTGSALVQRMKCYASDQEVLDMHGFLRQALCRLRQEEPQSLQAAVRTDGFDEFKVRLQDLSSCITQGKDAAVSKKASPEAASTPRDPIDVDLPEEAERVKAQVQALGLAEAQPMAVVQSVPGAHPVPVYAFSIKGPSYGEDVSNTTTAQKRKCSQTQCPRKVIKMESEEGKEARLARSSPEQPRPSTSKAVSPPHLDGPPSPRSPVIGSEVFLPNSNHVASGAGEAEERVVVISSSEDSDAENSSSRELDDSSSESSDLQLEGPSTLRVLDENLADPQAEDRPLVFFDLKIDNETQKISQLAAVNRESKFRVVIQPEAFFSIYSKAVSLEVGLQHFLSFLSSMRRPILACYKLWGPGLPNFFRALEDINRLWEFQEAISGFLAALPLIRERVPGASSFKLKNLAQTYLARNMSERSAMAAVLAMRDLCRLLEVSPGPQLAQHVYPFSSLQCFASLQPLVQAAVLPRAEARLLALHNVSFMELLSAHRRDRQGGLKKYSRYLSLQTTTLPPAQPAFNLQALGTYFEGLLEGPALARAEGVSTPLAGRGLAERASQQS

Row | Structure (SMILES) | IC50 (NB-4; Homo sapiens, NB-4, 48 h) [µM] | IC50 (NB-4; nb-4) [µM] | Activity [3] | further results
1 | O=S(=O)(O)c1cc(O)c2c(O)c(/N=N/c3ccccc3[As](=O)(O)O)c(S(=O)(=O)O)cc2c1 | > 50 | – | – | –
2 | O=[As]O [SODIUM ARSENITE] | 0.11 | – | – | Activity [1]: Active
3 | Nc1ccc([As](=O)(O)O)cc1 [ARSANILIC ACID] | > 50 | – | – | –
4 | O=[As]12O[As]3(=O)O[As](=O)(O1)O[As](=O)(O2)O3 | – | 5.56 | – | Activity [2]: Active
5 | S=[As][As]=S (stereo not given) | – | – | inactive | –
6 | S1[As]2S[As]3S[As]1S[As](S2)S3 | – | 1.99 | inactive | Activity [4]: Active
